Experimental findings from ChEMBL document CHEMBL1149389 (Bioorg Med Chem Lett, 2006) are described below.

Bounds are passed on as bounds.

One data set concerns the target D(2) dopamine receptor (Homo sapiens, UniProt P14416). The data set is described as follows: Binding affinity to human cloned dopamine D2 receptor.
Another data set concerns the target D(3) dopamine receptor (Homo sapiens, UniProt P35462). Put plainly: Binding affinity to human cloned dopamine D3 receptor.
For another data set, the system named is Rattus norvegicus. The data set is described as follows: Antagonism of agonist-induced huddling deficits in orally administered rat. Format: functional. The note with it: po.
For data set [1], the system named is Liver microsomes. Put plainly: Metabolic stability in rat liver microsomes. Format: ADME, Microsome. In general terms: Microsomes from liver hold many membrane-bound enzymes, among them those of drug oxidation.
Data set [2] is described as follows: Permeability across Caco-2 cell membrane. Format: ADME, cell-based. The note with it: human.
The test system of data set [3] is Liver microsomes. The data set is described as follows: Metabolic stability in human liver microsomes. Format: ADME, Microsome.

Sequence of D(3) dopamine receptor (P35462 whole entry): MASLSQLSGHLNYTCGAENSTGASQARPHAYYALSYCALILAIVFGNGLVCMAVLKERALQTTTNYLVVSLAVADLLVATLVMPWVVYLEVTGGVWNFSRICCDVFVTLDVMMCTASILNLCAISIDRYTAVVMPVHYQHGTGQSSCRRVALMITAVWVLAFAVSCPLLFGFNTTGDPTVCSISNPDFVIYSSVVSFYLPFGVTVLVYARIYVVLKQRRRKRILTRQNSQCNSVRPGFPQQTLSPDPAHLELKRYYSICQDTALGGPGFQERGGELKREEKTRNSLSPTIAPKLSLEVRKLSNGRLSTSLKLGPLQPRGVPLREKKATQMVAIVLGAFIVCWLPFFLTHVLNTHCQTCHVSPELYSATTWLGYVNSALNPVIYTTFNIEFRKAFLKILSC
Sequence of D(2) dopamine receptor (P14416 whole entry): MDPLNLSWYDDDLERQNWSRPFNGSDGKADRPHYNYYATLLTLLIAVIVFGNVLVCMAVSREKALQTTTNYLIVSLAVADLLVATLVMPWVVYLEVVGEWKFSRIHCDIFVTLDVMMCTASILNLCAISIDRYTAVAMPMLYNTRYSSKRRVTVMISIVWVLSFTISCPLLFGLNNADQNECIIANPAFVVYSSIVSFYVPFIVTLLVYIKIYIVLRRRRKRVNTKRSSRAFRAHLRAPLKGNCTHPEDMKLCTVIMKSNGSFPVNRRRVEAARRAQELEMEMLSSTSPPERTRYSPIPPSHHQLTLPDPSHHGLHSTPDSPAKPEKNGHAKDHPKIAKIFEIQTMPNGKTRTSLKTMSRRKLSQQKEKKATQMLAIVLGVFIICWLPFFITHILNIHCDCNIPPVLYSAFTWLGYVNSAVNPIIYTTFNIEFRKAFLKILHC

The term Ki denotes the dissociation constant of the complex between target and ligand, obtained from inhibition or displacement. Read a low Ki as a stronger hold on the target. Turning to `CCOc1ccn(CCCCN2CCN(c3cc(C(F)(F)F)nc(C(C)(C)C)n3)CC2)c(=O)n1`, the Ki at D(2) dopamine receptor turned out to be 290 nM.
`CC(C)(C)c1nc(N2CCN(CCCCn3ccc(C4CCCCC4)nc3=O)CC2)cc(C(F)(F)F)n1` had a Ki on D(2) dopamine receptor of 302 nM. The Ki values of the last two molecules are within 1.5-fold of each other.
`Cc1cn(CCCCN2CCN(c3cc(C(F)(F)F)nc(C(C)(C)C)n3)CC2)c(=O)n(C)c1=O`: the Ki at D(2) dopamine receptor is 356 nM; at D(3) dopamine receptor, 10.4 nM.
Consider `CC(C)(C)c1nc(N2CCN(CCCCn3cccnc3=O)CC2)cc(C(F)(F)F)n1`, for which the results for the Ki at D(2) dopamine receptor and at D(3) dopamine receptor were 447 nM and 12.9 nM, respectively.
With `CCc1cn(CCCCN2CCN(c3cc(C(F)(F)F)nc(C(C)(C)C)n3)CC2)c(=O)[nH]c1=O`, the Ki at D(2) dopamine receptor was 148 nM; on D(3) dopamine receptor it was 1.7 nM.
As to `CC(C)(C)c1nc(N2CCN(CCCCn3ccc(C4CCC4)nc3=O)CC2)cc(C(F)(F)F)n1`, the Ki on D(2) dopamine receptor was 273 nM.
`CC(C)(C)c1nc(N2CCN(CCCCn3cc(Cl)c(=O)[nH]c3=O)CC2)cc(C(F)(F)F)n1`: the Ki on D(2) dopamine receptor amounted to 220 nM.
`Cc1ccn(CCCCN2CCN(c3cc(C(F)(F)F)nc(C(C)(C)C)n3)CC2)c(=O)n1`: the Ki at D(2) dopamine receptor was 307 nM.
On the same count and under the same terms, then `CC(C)(C)c1nc(N2CCN(CCCCn3cc(C(F)(F)F)c(=O)[nH]c3=O)CC2)cc(C(F)(F)F)n1`, with 646 nM.
With `Cn1c(=O)ccn(CCCCN2CCN(c3cc(C(F)(F)F)nc(C(C)(C)C)n3)CC2)c1=O`, the Ki amounted to 610 nM on D(2) dopamine receptor and 11.8 nM on D(3) dopamine receptor.
On D(2) dopamine receptor, `CC(C)(C)c1nc(N2CCN(CCCSc3nccc(O)n3)CC2)cc(C(F)(F)F)n1` [ABT-925] displayed a Ki of 351 nM.
The same measure, in the same setting: then `CC(C)(C)c1nc(N2CCN(CCCCn3cc(F)c(=O)[nH]c3=O)CC2)cc(C(F)(F)F)n1`, with 602 nM; and `CC(C)(C)c1nc(N2CCN(CCCCn3ccc(=O)[nH]c3=O)CC2)cc(C(F)(F)F)n1`, with 196 nM.
The same measure, in the same setting: for `CC(C)(C)c1nc(N2CCN(CCCCn3ccc(-c4ccccc4)nc3=O)CC2)cc(C(F)(F)F)n1` the value was 168 nM.
For the molecule `CC(C)(C)c1nc(N2CCN(CCCCn3ccc(N4CCC4)nc3=O)CC2)cc(C(F)(F)F)n1`, the values for the Ki at D(2) dopamine receptor and on D(3) dopamine receptor were 82.1 nM and 4.4 nM, respectively.
Turning to `CC(C)(C)c1ccn(CCCCN2CCN(c3cc(C(F)(F)F)nc(C(C)(C)C)n3)CC2)c(=O)n1`, at D(2) dopamine receptor, the affinity corresponds to a Ki of 216 nM.
As for `CC(C)(C)c1nc(N2CCN(CCCCn3ccc(C4CC4)nc3=O)CC2)cc(C(F)(F)F)n1`, the Ki on D(2) dopamine receptor turned out to be 155 nM; at D(3) dopamine receptor, 3.7 nM.
Turning to `CC(C)(C)c1nc(N2CCN(CCCCn3ccc(N4CCCCC4)nc3=O)CC2)cc(C(F)(F)F)n1`, the Ki was 89.4 nM at D(2) dopamine receptor and 3.4 nM at D(3) dopamine receptor.
Molecule `CC(C)(C)c1nc(N2CCN(CCCCn3cc(C#N)c(=O)[nH]c3=O)CC2)cc(C(F)(F)F)n1` gave a Ki on D(2) dopamine receptor of 473 nM.
Usually ED50 stands for the midpoint of the dose-response relation. As a reminder, the Papp is a coefficient for how fast a substance crosses the barrier. Low readings indicate slow passage, high ones fast passage. Molecule `Cc1cn(CCCCN2CCN(c3cc(C(F)(F)F)nc(C(C)(C)C)n3)CC2)c(=O)[nH]c1=O` gave an ED50 in the data set on Rattus norvegicus of 6.1 mg/kg. Besides, the affinity at D(2) dopamine receptor, expressed as Ki, was 320 nM. Besides, the Stability in the data set with Liver microsomes [1] and in the data set on Liver microsomes [3] was more than 97% each time. This molecule had a Papp in data set [2] of 1.94 ×10⁻⁶ cm/s.
